In the assay the target is Plk1 (Homo sapiens, UniProt P53350). The assay can be described thus: biochemical.
Plk1, sequence (P53350 20-338): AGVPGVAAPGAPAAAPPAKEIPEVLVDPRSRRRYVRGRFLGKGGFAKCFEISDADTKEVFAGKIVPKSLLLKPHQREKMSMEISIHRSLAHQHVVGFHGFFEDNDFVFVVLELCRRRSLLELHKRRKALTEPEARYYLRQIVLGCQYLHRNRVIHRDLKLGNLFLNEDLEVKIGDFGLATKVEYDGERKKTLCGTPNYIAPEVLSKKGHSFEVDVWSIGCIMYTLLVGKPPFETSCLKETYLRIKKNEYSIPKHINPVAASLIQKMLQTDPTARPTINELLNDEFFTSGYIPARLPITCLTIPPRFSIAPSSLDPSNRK

What is called Ki is the equilibrium dissociation constant of an inhibitor or competing ligand from its target. Consider `COc1cc(C(=O)O)ccc1Nc1ncc2c(n1)N(C1CCCC1)CC(C)(C)C(=O)N2C` [Compound I-120, 4-(9-cyclopentyl-6,7,8,9-tetrahydro-5,7,7-trimethyl-6-oxo-5H-pyrimido[4,5-b][1,4]diazepin-2-ylamino)-3-methoxybenzoic acid], for which the Ki was 10 to 100 nM. The result for `CNC(=O)c1ccc(Nc2ncc3c(n2)N(Cc2ccccc2)CC(C)(C)C(=O)N3C)c(OC)c1` [Compound I-122, 4-(9-benzyl-6,7,8,9-tetrahydro-5,7,7-trimethyl-6-oxo-5H-pyrimido[4,5-b][1,4]diazepin-2-ylamino)-3-methoxy-N-methylbenzamide] reads 10 to 100 nM; that for `CNC(=O)c1ccc(Nc2ncc3c(n2)N(CC2CCC2)CC(C)(C)C(=O)N3C)c(OC)c1` [Compound I-123, 4-(9-(cyclobutylmethyl)-6,7,8,9-tetrahydro-5,7,7-trimethyl-6-oxo-5H-pyrimido[4,5-b][1,4]diazepin-2-ylamino)-3-methoxy-N-methylbenzamide], less than 10 nM; that for `CN1C(=O)C(C)(C)CN(C2CCCC2)c2nc(Nc3cccc4c3CNC4=O)ncc21` [Compound I-124, 2-(1-oxoisoindolin-4-ylamino)-9-cyclopentyl-8,9-dihydro-5,7,7-trimethyl-5H-pyrimido[4,5-b][1,4]diazepin-6(7H)-one], 10 to 100 nM. Turning to `CN1C(=O)Cc2cc(Nc3ncc4c(n3)N(C3CCCC3)CC(C)(C)C(=O)N4C)ccc21` [Compound I-125, 2-(1-methyl-2-oxoindolin-5-ylamino)-9-cyclopentyl-8,9-dihydro-5,7,7-trimethyl-5H-pyrimido[4,5-b][1,4]diazepin-6(7H)-one], the Ki fell in the range of 10 to 100 nM. The result for `COc1cc(C(=O)NC2CCCC2)ccc1Nc1ncc2c(n1)N(C1CCCC1)CC(C)(C)C(=O)N2C` [Compound I-129, 4-(9-cyclopentyl-6,7,8,9-tetrahydro-5,7,7-trimethyl-6-oxo-5H-pyrimido[4,5-b][1,4]diazepin-2-ylamino)-N-cyclopentyl-3-methoxybenzamide] reads less than 10 nM; that for `COc1cc(C(=O)NC(C)(C)C)ccc1Nc1ncc2c(n1)N(C1CCCC1)CC(C)(C)C(=O)N2C` [Compound I-130, 4-(9-cyclopentyl-6,7,8,9-tetrahydro-5,7,7-trimethyl-6-oxo-5H-pyrimido[4,5-b][1,4]diazepin-2-ylamino)-N-tert-butyl-3-methoxybenzamide], less than 10 nM; that for `COc1cc(C(=O)NCC2CC2)ccc1Nc1ncc2c(n1)N(C1CCCC1)CC(C)(C)C(=O)N2C` [Compound I-131, 4-(9-cyclopentyl-6,7,8,9-tetrahydro-5,7,7-trimethyl-6-oxo-5H-pyrimido[4,5-b][1,4]diazepin-2-ylamino)-N-(cyclopropylmethyl)-3-methoxybenzamide], less than 10 nM. `COc1cc(C(=O)NCCC(F)(F)F)ccc1Nc1ncc2c(n1)N(C1CCCC1)CC(C)(C)C(=O)N2C` [Compound I-132, 4-(9-cyclopentyl-6,7,8,9-tetrahydro-5,7,7-trimethyl-6-oxo-5H-pyrimido[4,5-b][1,4]diazepin-2-ylamino)-N-(3,3,3-trifluoropropyl)-3-methoxybenzamide] had a Ki of less than 10 nM. The result for `COc1cc(C(=O)NC2CCCCC2)ccc1Nc1ncc2c(n1)N(C1CCCC1)CC(C)(C)C(=O)N2C` [Compound I-133, 4-(9-cyclopentyl-6,7,8,9-tetrahydro-5,7,7-trimethyl-6-oxo-5H-pyrimido[4,5-b][1,4]diazepin-2-ylamino)-N-cyclohexyl-3-methoxybenzamide] reads less than 10 nM; that for `COc1cc(C(=O)NC2CCOCC2)ccc1Nc1ncc2c(n1)N(C1CCCC1)CC(C)(C)C(=O)N2C` [Compound I-134, 4-(9-cyclopentyl-6,7,8,9-tetrahydro-5,7,7-trimethyl-6-oxo-5H-pyrimido[4,5-b][1,4]diazepin-2-ylamino)-N-(tetrahydro-2H-pyran-4-yl)-3-methoxybenzamide], less than 10 nM; that for `CCOc1cc(C(=O)NC2CCN(C(C)C)CC2)ccc1Nc1ncc2c(n1)N(C1CCCC1)CC(C)(C)C(=O)N2C` [Compound I-135, 4-(9-cyclopentyl-6,7,8,9-tetrahydro-5,7,7-trimethyl-6-oxo-5H-pyrimido[4,5-b][1,4]diazepin-2-ylamino)-3-ethoxy-N-(1-isopropylpiperidin-4-yl)benzamide], less than 10 nM. The result for `COc1cc(C(=O)NC(C)(CO)CO)ccc1Nc1ncc2c(n1)N(C1CCCC1)CC(C)(C)C(=O)N2C` [Compound I-136, 4-(9-cyclopentyl-6,7,8,9-tetrahydro-5,7,7-trimethyl-6-oxo-5H-pyrimido[4,5-b][1,4]diazepin-2-ylamino)-N-(1,3-dihydroxy-2-methylpropan-2-yl)-3-methoxybenzamide] reads less than 10 nM. The same measure for `CN1C(=O)C(C)(C)CN(C2CCCC2)c2nc(Nc3cccc(-c4cc[nH]n4)c3)ncc21` [Compound I-137, 2-(3-(1H-pyrazol-3-yl)phenylamino)-9-cyclopentyl-8,9-dihydro-5,7,7-trimethyl-5H-pyrimido[4,5-b][1,4]diazepin-6(7H)-one]: 10 to 100 nM; for `CN1C(=O)C(C)(C)CN(C2CCCC2)c2nc(Nc3ccc4c(c3)CCN4S(C)(=O)=O)ncc21` [Compound I-138, 9-Cyclopentyl-2-(1-methanesulfonyl-2,3-dihydro-1H-indol-5-ylamino)-5,7,7-trimethyl-5,7,8,9-tetrahydro-pyrimido[4,5-b][1,4]diazepin-6-one]: 10 to 100 nM; for `CN1C(=O)C(C)(C)CN(C2CCCC2)c2nc(Nc3ccc4c(c3)C(=O)C(=O)N4)ncc21` [Compound I-139, 5-(9-Cyclopentyl-6,7,8,9-tetrahydro-5,7,7-trimethyl-6-oxo-5H-pyrimido[4,5-b][1,4]diazepin-2-ylamino)indoline-2,3-dione]: 10 to 100 nM. In turn, `CN1C(=O)C(C)(C)CN(C2CCCC2)c2nc(Nc3cccc(C(=O)NC4CCOCC4)c3)ncc21` [Compound I-141, 3-(9-Cyclopentyl-6,7,8,9-tetrahydro-5,7,7-trimethyl-6-oxo-5H-pyrimido[4,5-b][1,4]diazepin-2-ylamino)-N-(tetrahydro-2H-pyran-4-yl)benzamide] gave an inhibition constant Ki of 10 to 100 nM.

For `CN1C(=O)C(C)(C)CN(C2CCCC2)c2nc(Nc3cccc(C(=O)NC4CN(C(=O)OC(C)(C)C)C4)c3)ncc21` [Compound I-143, 3-[3-(9-Cyclopentyl-5,7,7-trimethyl-6-oxo-6,7,8,9-tetrahydro-5H-pyrimido[4,5-b][1,4]diazepin-2-ylamino)-benzoylamino]-azetidine-1-carboxylic acid tert-butyl ester], the Ki lay in the range of 10 to 100 nM. The result for `COCCNC(=O)c1cccc(Nc2ncc3c(n2)N(C2CCCC2)CC(C)(C)C(=O)N3C)c1` [Compound I-144, 3-(9-Cyclopentyl-6,7,8,9-tetrahydro-5,7,7-trimethyl-6-oxo-5H-pyrimido[4,5-b][1,4]diazepin-2-ylamino)-N-(2-methoxyethyl)benzamide] reads 10 to 100 nM; that for `CN1C(=O)C(C)(C)CN(C2CCCC2)c2nc(Nc3cccc(NC(=O)CC(F)(F)F)c3)ncc21` [Compound I-145], 10 to 100 nM.

For `COCC(=O)Nc1cccc(Nc2ncc3c(n2)N(C2CCCC2)CC(C)(C)C(=O)N3C)c1` [Compound I-147, N-(3-(9-Cyclopentyl-6,7,8,9-tetrahydro-5,7,7-trimethyl-6-oxo-5H-pyrimido[4,5-b][1,4]diazepin-2-ylamino)phenyl)-2-methoxyacetamide], the inhibitory constant (Ki) was in the range of 10 to 100 nM.

Molecule `CN1C(=O)C(C)(C)CN(C2CCCC2)c2nc(Nc3cccc(N4CCCC4=O)c3)ncc21` [Compound I-149, 2-(3-(2-oxopyrrolidin-1-yl)phenylamino)-9-cyclopentyl-8,9-dihydro-5,7,7-trimethyl-5H-pyrimido[4,5-b][1,4]diazepin-6(7H)-one] came in with a Ki of 10 to 100 nM. The same measure for `CN1C(=O)C(C)(C)CN(C2CCCC2)c2nc(Nc3cccc(NS(C)(=O)=O)c3)ncc21` [Compound I-150, N-[3-(9-cyclopentyl-5,7,7-trimethyl-6-oxo-6,7,8,9-tetrahydro-5H-pyrimido[4,5-b][1,4]diazepin-2-ylamino)-phenyl]-methanesulfonamide]: 10 to 100 nM; for `CN1C(=O)C(C)(C)CN(C2CCCC2)c2nc(Nc3cccc(NC(=O)C4CCC4)c3)ncc21` [Compound I-151, N-(3-(9-cyclopentyl-6,7,8,9-tetrahydro-5,7,7-trimethyl-6-oxo-5H-pyrimido[4,5-b][1,4]diazepin-2-ylamino)phenyl)cyclobutanecarboxamide]: 10 to 100 nM. The result for `CN1C(=O)C(C)(C)CN(C2CCCC2)c2nc(Nc3cccc(C(=O)N4CC(F)(C5CC5)C4)c3)ncc21` [Compound I-152, 9-Cyclopentyl-2-[3-(3-cyclopropyl-3-fluoro-azetidine-1-carbonyl)-phenylamino]-5,7,7-trimethyl-5,7,8,9-tetrahydro-pyrimido[4,5-b][1,4]diazepin-6-one] reads 10 to 100 nM; that for `CN1C(=O)C(C)(C)CN(C2CCCC2)c2nc(Nc3cccc(-c4cccnc4)c3)ncc21` [Compound I-153, 2-(3-(pyridin-3-yl)phenylamino)-9-cyclopentyl-8,9-dihydro-5,7,7-trimethyl-5H-pyrimido[4,5-b][1,4]diazepin-6(7H)-one], 10 to 100 nM; that for `CN1C(=O)C(C)(C)CN(C2CCCC2)c2nc(Nc3cccc(NC(=O)c4ccccc4)c3)ncc21` [Compound I-154, N-(3-(9-cyclopentyl-6,7,8,9-tetrahydro-5,7,7-trimethyl-6-oxo-5H-pyrimido[4,5-b][1,4]diazepin-2-ylamino)phenyl)benzamide], 10 to 100 nM. Consider `COC(=O)Nc1cccc(Nc2ncc3c(n2)N(C2CCCC2)CC(C)(C)C(=O)N3C)c1` [Compound I-155], for which the inhibition constant Ki was in the range of 10 to 100 nM.

The molecule `CN1C(=O)C(C)(C)CN(C2CCCC2)c2nc(Nc3cccc(C(=O)NC4CNC4)c3)ncc21` [Compound I-156, 3-(9-cyclopentyl-6,7,8,9-tetrahydro-5,7,7-trimethyl-6-oxo-5H-pyrimido[4,5-b][1,4]diazepin-2-ylamino)-N-(azetidin-3-yl)benzamide] returned a Ki of 10 to 100 nM.

Values taken from patent publication US8394952B2 (Vertex Pharmaceuticals Incorporated, priority 2006, dated 2013).
